Columns and labels:
GSK3β = molecular target: T1, GSK3β (Homo sapiens, UniProt P49841); experiment: Evaluation of GSK3β activity: inhibition of purified GSK3β, [γ-32P]ATP / GS-2 peptide filter assay; assay type: biochemical; settings: for IC50: purified GSK3β expressed in Sf9 cells, 15 μM ATP, GS-2 peptide substrate, 30 min at 30° C.; for inhibiting activity on GSK3β activity (in words): summary of Table 1
T1 construct: made in house; host or cells: insect Sf9 cells
Method: Compounds were evaluated for inhibition against purified GSK3β. GSK3β was expressed in and purified from insect Sf9 cells. Compounds (10 μM) were assayed; following a 1/100 dilution of the enzyme in 1 mg/ml BSA, 10 mM DTT, with 5 μl of 40 μM GS-2 peptide as a substrate, in a buffer, in the presence of 15 μM [γ-^32P]ATP (3000 Ci/mmol; 1 mCi/ml) in a final volume of 30 μl. After 30-min incubation at 30° C., 25-μl aliquots of supernatant were spotted onto 2.5×3 cm pieces of Whatman P81 phosphocellulose paper, and, 20 s later, the filters were washed five times (for at least 5 min each time) in a solution of 10 ml of phosphoric acid/liter of water. The wet filters were counted in the presence of 1 ml of scintillation fluid.

MPTP-treated mice = experiment: Anti-Parkinsonian activity in MPTP-treated mice with a sub threshold dose of L-DOPA (motor activity counts); assay type: in vivo, C57 BL/6 mice; settings: for LOCOMOTION / REARING / TOTAL ACTIVITY: MPTP-treated mice (2×40 mg/kg s.c.), compound 3 mg/kg orally + 5 mg/kg L-Dopa s.c., counts with Vehicle (no MPTP) = 100%
Method: Animals: six month old male C57 BL/6 mice, weighing 22-25 g were used. Following arrival at the laboratory, the mice were allowed to acclimatize for two weeks in a room with controlled temperature (21±1° C.), and a constant light-dark schedule (12 hr on/12 hr off, lights on between 06.00 and 18.00 hrs). Free access to food and water was maintained throughout. They were housed in groups of 12 animals and tested only during the hours of light (08.00-15.00 hrs). All testing was performed in a normally lighted room.
Behavioural measurements and apparatus: An automated device, consisting of macrolon rodent test cages (40×25×15 cm), each placed within two series of infra-red beams (at two different heights, one low and one high, 2 and 8 cm, respectively, above the surface of the sawdust, 1 cm deep), was used to measure spontaneous and/or drug-induced motor activity of 1-methyl 4-phenyl 1,2,3,6-tetrahydropyridine (MPTP) and control mice. The following parameters were measured: LOCOMOTION was measured by the low grid of infrared beams. Counts were registered only when the mouse in the horizontal plane, ambulating around the test-cage. REARING was registered throughout the time when at least one high level beam was interrupted, i.e. the number of counts registered was proportional to the amount of time spent rearing. TOTAL ACTIVITY was measured by a sensor (a pick-up similar to a gramophone needle, mounted on a lever with a counterweight) with which the test cage was constantly in contact. The sensor registered all types of vibration received from the test cage, such as those produced both by locomotion and rearing as well as shaking, tremors, scratching and grooming.
Behavioral measurements (locomotion, rearing and total activity): Twelve days after MPTP injections (2×40 mg/kg, s.c., 24 hr interval), the mice were administered orally with the different compounds at 3 mg/kg or vehicle (0.1% Tween-80 in 1% methylcellulose) and immediately thereafter placed in the activity test chambers and their motor behaviors were monitored for 60 min. After 60 min, the mice were injected with 5 mg/kg L-Dopa (s.c) and then replaced in the test chamber and activity measurements maintained for an additional 300 min.
Table 2 presents the locomotion, rearing and total activity counts of MPTP-treated and control mice administered either tested substances or vehicle administered with a sub threshold dose of L-Dopa.

NMDA-activated currents = experiment: Electrophysiological characterisation of NMDA-activated currents in freshly isolated hippocampal neurones (whole-cell patch clamp); assay type: cell-based, Wistar rats; settings: for % Inhibition Peak Current / % Inhibition Steady State Current: 1 μM substance, 10 μM glycine, 300 μM L-aspartate, holding potential −70 mV, mean of at least 4 cells; for blocking activity on NMDA-activated currents (in words): summary of Table 3, 1 μM
Method: Isolation of hippocampal neurons: Wistar rats (12-14 days) were decapitated without anesthesia and the hippocampus was removed. It was manually cut into slices (0.2-0.4 mm), in a solution containing (mM): 150 NaCl; 5 KCL; 1.25 NaH2PO4; 2 CaCl2; 2 MgCl2; 26 NaHCO3; 20 glucose. Slices were preincubated in this solution for 30 min at room temperature. The enzymatic treatment proceeded in the same solution with lower Ca^2+ concentration (0.5 mm) containing 0.4 mg/ml protease from aspergillus oryzae. The incubation in the enzyme solution proceeded at 32° C. within 10 min. Slices were kept subsequently in enzyme-free solution containing normal Ca^2±concentration and used within 6-8 h for obtaining isolated neurons. Throughout the entire procedure the solutions were continuously saturated with a 95% O2 and 5% CO2 gas mixture to maintain pH of 7.4. For cell dissociation the slice was transferred into the extracellular solution containing (mM): 150 NaCl; 5 KCl; 2 CaCl2; 10 n-2-hydroxyethylpiperazine-n′-2-ethanesulphonic acid (Hepes); pH adjusted with NaOH to 7.4. Single cells were isolated from CA and CA3 zones of hippocampal slices by vibrodissociation method. […] After isolation they were usually suitable for the recording for 1-2 h.
Salines and chemicals: The contents of the extracellular solution was as follows (in mM): 130 NaCl, 5KCl, 2CaCl2, 20 n-2-hydroxyethylpiperazine-n′-2-ethansulfonic acid (Hepes); 0.1 μm TTX, 10 μm glycine, […] 1-aspartate; pH was adjusted with NaOH to 7.4.
The contents of the intracellular solution were as follows (in mM): 110 CsF, 20 Tris-HCl (pH=7.2). L-aspartate and glycine solutions were prepared on the day of experiment.
The tested substances were dissolved in DMSO.
Current recording and data analysis: The drug-containing solutions were applied by the fast “concentration clamp” method using “jumping table” set-up. The currents were recorded with patch clamp technique in the whole-cell configuration. Recording of the currents was performed using EPC-7 L/M patch-clamp amplifier.
NMDA-activated currents: The currents were filtered at 3 kHz (three-pole active Bessel filter) digitally sampled at the rate 6000 μs per point for NMDA activated currents. NMDA-induced transmembrane currents were measured in the presence of 10 μM glycine and 300 μM L-aspartate in the control and test solutions. The currents were recorded at holding potential −70 mV.
Calculations: The inhibition of current at 1 μM of the substance was averaged at least for 4 cells. The effect of substance was measured as the mean ratio I/Io where I was the current under the action of substance and Io was the current in control conditions.

T1 sequence (P49841 whole entry, species assumed): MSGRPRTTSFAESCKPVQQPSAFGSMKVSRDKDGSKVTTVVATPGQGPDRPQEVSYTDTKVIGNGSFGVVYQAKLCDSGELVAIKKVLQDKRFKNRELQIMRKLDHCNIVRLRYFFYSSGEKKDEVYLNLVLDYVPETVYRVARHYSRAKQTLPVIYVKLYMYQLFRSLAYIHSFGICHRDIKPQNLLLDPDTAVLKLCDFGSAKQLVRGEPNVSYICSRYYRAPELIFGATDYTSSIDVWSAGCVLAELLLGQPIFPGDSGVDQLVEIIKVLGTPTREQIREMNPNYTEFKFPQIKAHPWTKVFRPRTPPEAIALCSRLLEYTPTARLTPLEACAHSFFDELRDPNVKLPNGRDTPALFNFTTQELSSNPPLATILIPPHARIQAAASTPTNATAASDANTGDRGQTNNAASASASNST

## N#Cc1cc([N+](=O)[O-])ccc1NCCc1c[nH]c2ccccc12 [N-(2-cyano-4-nitrophenyl)-tryptamine]
GSK3β
  IC50: 12.7 µM
  inhibiting activity on GSK3β activity (in words): significant inhibiting activity
MPTP-treated mice; 3 mg/kg, combined with a sub-threshold (inactive) dose of L-Dopa
  reversal of the motor deficits of MPTP-treated mice (in words): significantly reversed the motor deficits
MPTP-treated mice
  LOCOMOTION: 52%
  REARING: 98%
  TOTAL ACTIVITY: 73%
NMDA-activated currents
  % Inhibition Peak Current: 83.1%
  % Inhibition Steady State Current: 82.44%
  blocking activity on NMDA-activated currents (in words): significant blocking activity

## COc1ccc2[nH]cc(CCNc3ccc(C#N)c(C#N)c3)c2c1 [N-(3,4-dicyanophenyl)-5-methoxytryptamine]
GSK3β
  IC50: 16.8 µM
  inhibiting activity on GSK3β activity (in words): significant inhibiting activity
MPTP-treated mice
  LOCOMOTION: 19%
  REARING: 27%
  TOTAL ACTIVITY: 48%
NMDA-activated currents
  % Inhibition Peak Current: 84.4%
  % Inhibition Steady State Current: 78.4%
  blocking activity on NMDA-activated currents (in words): significant blocking activity

## N#Cc1ccc(NCCc2c[nH]c3ccccc23)cc1C#N [N-(3,4-dicyanophenyl)-tryptamine]
GSK3β
  IC50: 14.8 µM
  inhibiting activity on GSK3β activity (in words): significant inhibiting activity
MPTP-treated mice
  LOCOMOTION: 18%
  REARING: 25%
  TOTAL ACTIVITY: 47%
NMDA-activated currents
  % Inhibition Peak Current: 93.4%
  % Inhibition Steady State Current: 66.4%
  blocking activity on NMDA-activated currents (in words): significant blocking activity

## COc1ccc2[nH]cc(CCNc3ccc(C(=O)O)cc3[N+](=O)[O-])c2c1 [N-(4-Carboxy-2-nitrophenyl)-5-methoxytryptamine]
GSK3β
  IC50: 21.7 µM
  inhibiting activity on GSK3β activity (in words): significant inhibiting activity
MPTP-treated mice
  LOCOMOTION: 22%
  REARING: 30%
  TOTAL ACTIVITY: 46%
NMDA-activated currents
  % Inhibition Peak Current: 89.92%
  % Inhibition Steady State Current: 74.14%
  blocking activity on NMDA-activated currents (in words): significant blocking activity
